From patent US10849988B2, “Hydrogel for engineered immune response to D-chirality peptides” (THE REGENTS OF THE UNIVERSITY OF CALIFORNIA, priority 2016, dated 2020) come the findings set out here.

This assay has as its system macrophages. The assay can be described thus: In vitro macrophage assay, mRNA production of key markers of inflammation. The format is cell-based. An excerpt:
FIGS. 6A-6I show data from comparative studies on D and L peptides. […] Note: in 1:1 L/D samples the L gels are unlabeled. FIG. 6B) Quantification of CD11b positive cells (immune cells) within and around gel within a healed dermal wound bed at Day 21 (ex. FIG. 6A). FIG. 6C) Comparing cell recruitment into subcutaneously-injected gels as a function of adaptive immune competence (Balb/c) versus adaptive immune incompetence (Rag2gc−/−). FIG. 6D) Fraction of immune cell to total cell recruitment within a subcutaneously injected gels as a function of adaptive immune competence (Balb/c) versus adaptive immune incompetence (Rag2gc−/−). FIGS. 6E-I) mRNA production of key markers of inflammation within an in vitro macrophage assay upon exposure to DI water, Lipid Polysaccharide (LPS) 500 ug/mL, D-MMP crosslinker 500 ug/mL, and LPS+D-MMP.

Where no end group is shown, it is not given here. [ ]: non-standard residue; d: D form.

Regarding “Gly Cys Arg Asp Gly Pro d-Gln Gly d-Ile d-Trp Gly Gln Asp Arg Cys Gly (GCRDGP[dQ]G[dI][dW]GQDRCG; cysteine pairing not given here) [D-MMP]”, for the setting “D-MMP crosslinker 500 ug/mL alone”, the “effect on macrophages (mRNA of key markers of inflammation) relative to the positive control (LPS)” value is on record as “no direct effect”. Further, the “effect on macrophages (mRNA of key markers of inflammation) when combined with the positive control (LPS)” value (LPS+D-MMP, each 500 ug/mL) is reported as “some additive affects”.
